In article PMC7736581, “Activation of the IRE1 RNase through remodeling of the kinase front pocket by ATP-competitive ligands” (Nature Communications, 2020):

Tests used:
Test in all cases: biochemical
Design in all cases: Invitrogen kinase panel: Z'Lyte activity (ATP at Km) or LanthaScreen competitive ATP-site binding, percent inhibition
CLK4 = CLK4 (Homo sapiens, UniProt Q9HAZ1)
MEKK2 = target: T1, MEKK2 (Homo sapiens, UniProt Q9Y2U5)
T1 construct: gene MAP3K2

ErbB4 = ErbB4 (Homo sapiens, UniProt Q15303)
CDK7/cyclinH = CDK7/cyclinH (Homo sapiens, UniProt P50613)
HIPK1 = HIPK1 (Homo sapiens, UniProt Q86Z02)
PKG1_alpha = target: T2, PKG1_alpha (Homo sapiens, UniProt Q13976)
T2 construct: gene PRKG1; isoform alpha

PI3K-G = target: T3, PI3K-G (Homo sapiens, UniProt P48736)
T3 construct: gene PIK3CG

RIPK2 = RIPK2 (Homo sapiens, UniProt O43353)
GRK3 = GRK3 (Homo sapiens, UniProt P35626)
PAK6 = PAK6 (Homo sapiens, UniProt Q9NQU5)
SGK3 = SGK3 (Homo sapiens, UniProt Q96BR1)
PrKX = PrKX (Homo sapiens, UniProt P51817)
Blk = Blk (Homo sapiens, UniProt P51451)
WEE1 = WEE1 (Homo sapiens, UniProt P30291)
STK16 = STK16 (Homo sapiens, UniProt O75716)
ZAK = target: T4, ZAK (Homo sapiens, UniProt Q9NYL2)
T4 construct: gene MAP3K20

AKT1 = AKT1 (Homo sapiens, UniProt P31749)
p38_delta = target: T5, p38_delta (Homo sapiens, UniProt O15264)
T5 construct: gene MAPK13

CDK8/cyclinC = CDK8/cyclinC (Homo sapiens, UniProt P49336)
Hyl = target: T6, Hyl (Homo sapiens, UniProt P42679)
T6 construct: gene MATK

ERN1 = ERN1 (Homo sapiens, UniProt O75460)
WNK2 = WNK2 (Homo sapiens, UniProt Q9Y3S1)
CK1_gamma1 = target: T7, CK1_gamma1 (Homo sapiens, UniProt Q9HCP0)
T7 construct: gene CSNK1G1

GRK2 = GRK2 (Homo sapiens, UniProt P25098)
CSK = CSK (Homo sapiens, UniProt P41240)

Sequence of GRK2 (P25098 whole entry): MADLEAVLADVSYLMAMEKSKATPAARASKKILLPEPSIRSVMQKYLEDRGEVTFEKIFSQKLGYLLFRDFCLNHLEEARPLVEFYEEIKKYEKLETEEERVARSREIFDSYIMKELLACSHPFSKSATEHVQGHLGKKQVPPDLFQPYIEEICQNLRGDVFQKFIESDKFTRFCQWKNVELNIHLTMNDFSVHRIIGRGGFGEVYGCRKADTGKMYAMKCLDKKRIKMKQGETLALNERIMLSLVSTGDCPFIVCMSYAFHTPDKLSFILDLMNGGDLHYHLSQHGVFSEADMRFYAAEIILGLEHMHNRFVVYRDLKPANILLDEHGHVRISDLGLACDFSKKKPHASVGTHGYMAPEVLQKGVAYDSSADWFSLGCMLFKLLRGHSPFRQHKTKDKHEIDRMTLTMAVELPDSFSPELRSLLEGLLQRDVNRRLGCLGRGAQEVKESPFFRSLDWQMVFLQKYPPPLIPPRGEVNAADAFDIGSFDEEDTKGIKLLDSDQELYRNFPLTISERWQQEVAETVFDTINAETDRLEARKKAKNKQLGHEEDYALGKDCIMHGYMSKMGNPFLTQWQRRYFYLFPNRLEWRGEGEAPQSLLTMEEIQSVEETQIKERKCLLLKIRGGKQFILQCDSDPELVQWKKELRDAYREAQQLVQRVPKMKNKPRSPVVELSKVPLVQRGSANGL
Sequence of AKT1 (P31749 whole entry): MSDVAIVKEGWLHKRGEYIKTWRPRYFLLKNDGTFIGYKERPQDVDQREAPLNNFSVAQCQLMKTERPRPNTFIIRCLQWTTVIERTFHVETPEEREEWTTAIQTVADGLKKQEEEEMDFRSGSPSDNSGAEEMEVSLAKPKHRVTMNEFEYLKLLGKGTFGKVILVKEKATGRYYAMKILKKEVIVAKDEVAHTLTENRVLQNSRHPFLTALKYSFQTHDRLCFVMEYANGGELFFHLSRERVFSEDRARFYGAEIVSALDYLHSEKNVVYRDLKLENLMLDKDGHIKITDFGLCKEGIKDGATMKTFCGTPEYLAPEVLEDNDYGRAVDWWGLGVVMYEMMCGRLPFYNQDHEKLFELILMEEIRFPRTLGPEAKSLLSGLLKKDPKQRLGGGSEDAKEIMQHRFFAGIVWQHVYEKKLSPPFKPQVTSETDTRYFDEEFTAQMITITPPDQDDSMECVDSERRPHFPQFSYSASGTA
Sequence of STK16 (O75716 whole entry): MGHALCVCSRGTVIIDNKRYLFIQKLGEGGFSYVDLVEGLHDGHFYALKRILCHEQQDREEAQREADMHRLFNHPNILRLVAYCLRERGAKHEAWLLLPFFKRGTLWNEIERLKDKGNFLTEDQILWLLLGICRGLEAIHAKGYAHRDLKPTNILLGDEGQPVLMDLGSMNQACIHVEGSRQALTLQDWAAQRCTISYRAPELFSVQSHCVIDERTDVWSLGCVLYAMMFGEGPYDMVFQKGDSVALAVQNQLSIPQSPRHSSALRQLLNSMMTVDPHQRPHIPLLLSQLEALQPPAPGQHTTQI
T6 sequence (P42679 whole entry): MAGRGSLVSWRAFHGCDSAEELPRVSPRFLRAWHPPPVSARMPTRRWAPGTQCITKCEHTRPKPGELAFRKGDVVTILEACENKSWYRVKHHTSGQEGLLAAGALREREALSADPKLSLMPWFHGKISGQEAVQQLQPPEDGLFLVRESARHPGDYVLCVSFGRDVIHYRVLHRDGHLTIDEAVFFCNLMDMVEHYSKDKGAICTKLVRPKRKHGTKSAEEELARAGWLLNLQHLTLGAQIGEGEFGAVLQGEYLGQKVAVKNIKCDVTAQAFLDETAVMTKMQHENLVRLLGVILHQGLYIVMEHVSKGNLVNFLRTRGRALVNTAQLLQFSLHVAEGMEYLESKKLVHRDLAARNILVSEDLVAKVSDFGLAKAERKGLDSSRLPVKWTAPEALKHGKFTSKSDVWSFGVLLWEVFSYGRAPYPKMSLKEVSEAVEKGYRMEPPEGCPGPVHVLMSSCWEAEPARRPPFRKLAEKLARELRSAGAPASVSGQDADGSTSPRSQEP
Sequence of WEE1 (P30291 whole entry): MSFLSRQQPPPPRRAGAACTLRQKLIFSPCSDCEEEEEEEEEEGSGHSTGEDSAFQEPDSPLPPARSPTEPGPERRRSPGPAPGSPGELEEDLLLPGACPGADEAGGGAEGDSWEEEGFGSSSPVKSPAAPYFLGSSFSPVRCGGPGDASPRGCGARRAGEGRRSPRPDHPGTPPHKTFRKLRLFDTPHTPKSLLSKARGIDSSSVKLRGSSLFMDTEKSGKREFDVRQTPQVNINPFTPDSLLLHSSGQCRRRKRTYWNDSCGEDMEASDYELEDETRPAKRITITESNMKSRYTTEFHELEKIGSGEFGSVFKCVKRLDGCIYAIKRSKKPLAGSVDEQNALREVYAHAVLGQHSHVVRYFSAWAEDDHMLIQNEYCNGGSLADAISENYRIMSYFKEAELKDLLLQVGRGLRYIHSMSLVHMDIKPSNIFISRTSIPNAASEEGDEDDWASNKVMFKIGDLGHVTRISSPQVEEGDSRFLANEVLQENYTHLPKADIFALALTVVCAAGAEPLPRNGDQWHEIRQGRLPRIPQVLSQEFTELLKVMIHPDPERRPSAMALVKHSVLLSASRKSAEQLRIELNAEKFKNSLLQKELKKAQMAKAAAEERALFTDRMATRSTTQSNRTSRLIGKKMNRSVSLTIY
Sequence of PrKX (P51817 whole entry): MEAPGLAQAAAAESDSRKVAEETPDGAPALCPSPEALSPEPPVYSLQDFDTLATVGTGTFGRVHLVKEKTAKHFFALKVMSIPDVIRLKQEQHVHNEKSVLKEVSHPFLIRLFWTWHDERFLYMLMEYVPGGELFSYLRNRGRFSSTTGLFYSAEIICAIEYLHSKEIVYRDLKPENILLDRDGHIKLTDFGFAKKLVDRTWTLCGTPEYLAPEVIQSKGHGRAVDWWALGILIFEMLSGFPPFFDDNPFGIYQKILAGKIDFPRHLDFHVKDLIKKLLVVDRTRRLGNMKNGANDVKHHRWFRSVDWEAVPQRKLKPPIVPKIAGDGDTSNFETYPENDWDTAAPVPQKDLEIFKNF
Sequence of HIPK1 (Q86Z02 whole entry): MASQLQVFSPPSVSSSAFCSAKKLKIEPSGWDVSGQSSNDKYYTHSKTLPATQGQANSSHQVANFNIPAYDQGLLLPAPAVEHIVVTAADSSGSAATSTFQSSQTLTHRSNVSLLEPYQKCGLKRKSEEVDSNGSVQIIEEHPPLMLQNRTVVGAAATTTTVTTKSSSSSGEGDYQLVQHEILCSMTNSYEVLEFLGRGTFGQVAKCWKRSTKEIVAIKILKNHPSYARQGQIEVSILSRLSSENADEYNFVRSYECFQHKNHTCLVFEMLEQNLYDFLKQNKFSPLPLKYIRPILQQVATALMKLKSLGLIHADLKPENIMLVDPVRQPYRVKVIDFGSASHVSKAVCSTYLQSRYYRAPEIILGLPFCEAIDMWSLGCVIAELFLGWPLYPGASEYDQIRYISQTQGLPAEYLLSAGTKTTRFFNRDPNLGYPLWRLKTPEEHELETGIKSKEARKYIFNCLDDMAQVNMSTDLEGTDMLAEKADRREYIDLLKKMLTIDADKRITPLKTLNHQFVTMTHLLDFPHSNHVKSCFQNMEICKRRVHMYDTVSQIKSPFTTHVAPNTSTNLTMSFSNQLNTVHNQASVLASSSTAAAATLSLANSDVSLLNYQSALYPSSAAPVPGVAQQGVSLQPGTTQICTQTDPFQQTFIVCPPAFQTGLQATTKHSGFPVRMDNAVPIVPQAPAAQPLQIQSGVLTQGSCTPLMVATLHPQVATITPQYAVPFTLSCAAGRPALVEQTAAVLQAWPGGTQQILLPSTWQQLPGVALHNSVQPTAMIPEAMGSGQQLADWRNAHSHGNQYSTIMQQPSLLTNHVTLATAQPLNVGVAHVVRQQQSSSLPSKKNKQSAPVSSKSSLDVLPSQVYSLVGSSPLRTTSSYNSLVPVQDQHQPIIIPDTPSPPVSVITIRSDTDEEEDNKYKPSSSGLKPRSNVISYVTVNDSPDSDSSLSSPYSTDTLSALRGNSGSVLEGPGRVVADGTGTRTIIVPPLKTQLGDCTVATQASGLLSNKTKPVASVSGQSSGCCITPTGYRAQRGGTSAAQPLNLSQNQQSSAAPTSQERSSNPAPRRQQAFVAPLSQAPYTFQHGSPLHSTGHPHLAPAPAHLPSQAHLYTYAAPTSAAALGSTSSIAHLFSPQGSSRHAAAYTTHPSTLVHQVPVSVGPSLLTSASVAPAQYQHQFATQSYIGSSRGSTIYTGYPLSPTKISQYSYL
T2 sequence (Q13976 whole entry, canonical isoform): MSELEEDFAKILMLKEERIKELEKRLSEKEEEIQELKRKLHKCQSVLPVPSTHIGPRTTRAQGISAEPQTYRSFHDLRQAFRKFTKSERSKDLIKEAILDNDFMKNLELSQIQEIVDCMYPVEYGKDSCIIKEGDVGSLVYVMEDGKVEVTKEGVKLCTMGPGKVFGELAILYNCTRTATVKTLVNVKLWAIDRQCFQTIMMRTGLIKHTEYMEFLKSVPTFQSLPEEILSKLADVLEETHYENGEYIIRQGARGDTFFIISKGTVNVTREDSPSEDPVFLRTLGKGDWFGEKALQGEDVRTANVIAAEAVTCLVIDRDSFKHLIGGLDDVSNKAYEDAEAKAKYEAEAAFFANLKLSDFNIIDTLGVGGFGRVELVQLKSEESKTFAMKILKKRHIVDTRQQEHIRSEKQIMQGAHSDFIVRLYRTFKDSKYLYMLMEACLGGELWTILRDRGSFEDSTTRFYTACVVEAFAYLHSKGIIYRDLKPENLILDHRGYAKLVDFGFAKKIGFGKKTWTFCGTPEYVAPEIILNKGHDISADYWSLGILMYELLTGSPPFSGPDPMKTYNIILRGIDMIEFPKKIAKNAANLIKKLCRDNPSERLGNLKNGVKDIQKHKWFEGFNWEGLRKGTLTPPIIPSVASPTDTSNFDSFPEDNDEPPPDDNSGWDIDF

CCOC(=O)Nc1cccc2c(Oc3ncccc3-c3ccnc(N[C@H]4CCCNC4)n3)c(C)ccc12 [G-1749]
inhibition at 1 µM (CLK4): 10.5%
inhibition at 1 µM (MEKK2): -0.5%
inhibition at 1 µM (ErbB4): 4.5%
inhibition at 1 µM (CDK7/cyclinH): 4.5%
inhibition at 1 µM (HIPK1): 1%
inhibition at 1 µM (PKG1_alpha): 1%
inhibition at 1 µM (PI3K-G): 16%
inhibition at 1 µM (RIPK2): 13.5%
inhibition at 1 µM (GRK3): -1%
inhibition at 1 µM (PAK6): 12.5%
inhibition at 1 µM (SGK3): -5.5%
inhibition at 1 µM (PrKX): -0.5%
inhibition at 1 µM (Blk): 10%
inhibition at 1 µM (WEE1): -5%
inhibition at 1 µM (STK16): -5.5%
inhibition at 1 µM (ZAK): -0.5%
inhibition at 1 µM (AKT1): -16.5%
inhibition at 1 µM (p38_delta): 11.5%
inhibition at 1 µM (CDK8/cyclinC): 2.5%
inhibition at 1 µM (Hyl): 6.5%
inhibition at 1 µM (ERN1): 99.5%
inhibition at 1 µM (WNK2): -1%
inhibition at 1 µM (CK1_gamma1): -1.5%
inhibition at 1 µM (GRK2): 2%
inhibition at 1 µM (CSK): 6%

CC#CC(=O)Nc1cccc2c(Oc3ncccc3-c3ccnc(N[C@H]4CCCNC4)n3)c(C)ccc12 [G-7658]
inhibition at 1 µM (CLK4): 6%
inhibition at 1 µM (MEKK2): 1%
inhibition at 1 µM (ErbB4): 11.5%
inhibition at 1 µM (CDK7/cyclinH): 7.5%
inhibition at 1 µM (HIPK1): 0.5%
inhibition at 1 µM (PKG1_alpha): 3.5%
inhibition at 1 µM (PI3K-G): -7%
inhibition at 1 µM (RIPK2): 27.5%
inhibition at 1 µM (GRK3): -1.5%
inhibition at 1 µM (PAK6): 11%
inhibition at 1 µM (SGK3): -2%
inhibition at 1 µM (PrKX): -1.5%
inhibition at 1 µM (Blk): 7.5%
inhibition at 1 µM (WEE1): -0.5%
inhibition at 1 µM (STK16): -9%
inhibition at 1 µM (ZAK): 0.5%
inhibition at 1 µM (AKT1): -13.5%
inhibition at 1 µM (p38_delta): 13.5%
inhibition at 1 µM (CDK8/cyclinC): 2%
inhibition at 1 µM (Hyl): 6.5%
inhibition at 1 µM (ERN1): 106%
inhibition at 1 µM (WNK2): -2.5%
inhibition at 1 µM (CK1_gamma1): 9%
inhibition at 1 µM (GRK2): 1%
inhibition at 1 µM (CSK): 5.5%
